Data taken from US9732071B2, “Compounds useful as modulators of TRPM8” (Senomyx, Inc., priority 2015, dated 2017).
Converted amounts (≈) assume the structure as drawn. Like-named read-outs stand apart in the source and are kept apart here.

How the values were obtained:
[1] = test system: panelists; experiment: Cool Line Scale Test (sensory study, cooling intensity versus 45 μM WS-3); format: in vivo, human; conditions: for Sensory Results: cooling compared with 45 μM WS-3: 5 μM compound, Low Sodium Buffer pH ~7.1, 0.1% ethanol, 15 point line scale; for lingering effect: cool line scale test
Description: A typical sensory study is described below followed by Table 5 summarizing sensory results of Compounds 101-105.
All samples made with Low Sodium Buffer (LSB) pH ˜7.1 and contain 0.1% ethanol.
Compounds are rated on a 15 point line scale where 45 μM WS-3 (N-Ethyl-p-menthane-3-carboxamide) is ranked as a 5 in cool intensity. In most cases, the compounds are tested to determine at what concentration the cooling intensity is equivalent to 45 μM WS-3. In each test, the panelist is presented with a 0 μM control sample, a 45 μM WS-3 control sample and the experimental compound sample and asked to rate the cooling intensity of each sample. [0218]

[2] = target: T1, hTRPM8 (Homo sapiens, UniProt Q7Z2W7); experiment: hTRPM8 agonist assay in a mammalian cell line stably expressing hTRPM8; format: cell-based
T1 construct: expressed in transfected cells
T1 sequence (Q7Z2W7 whole entry): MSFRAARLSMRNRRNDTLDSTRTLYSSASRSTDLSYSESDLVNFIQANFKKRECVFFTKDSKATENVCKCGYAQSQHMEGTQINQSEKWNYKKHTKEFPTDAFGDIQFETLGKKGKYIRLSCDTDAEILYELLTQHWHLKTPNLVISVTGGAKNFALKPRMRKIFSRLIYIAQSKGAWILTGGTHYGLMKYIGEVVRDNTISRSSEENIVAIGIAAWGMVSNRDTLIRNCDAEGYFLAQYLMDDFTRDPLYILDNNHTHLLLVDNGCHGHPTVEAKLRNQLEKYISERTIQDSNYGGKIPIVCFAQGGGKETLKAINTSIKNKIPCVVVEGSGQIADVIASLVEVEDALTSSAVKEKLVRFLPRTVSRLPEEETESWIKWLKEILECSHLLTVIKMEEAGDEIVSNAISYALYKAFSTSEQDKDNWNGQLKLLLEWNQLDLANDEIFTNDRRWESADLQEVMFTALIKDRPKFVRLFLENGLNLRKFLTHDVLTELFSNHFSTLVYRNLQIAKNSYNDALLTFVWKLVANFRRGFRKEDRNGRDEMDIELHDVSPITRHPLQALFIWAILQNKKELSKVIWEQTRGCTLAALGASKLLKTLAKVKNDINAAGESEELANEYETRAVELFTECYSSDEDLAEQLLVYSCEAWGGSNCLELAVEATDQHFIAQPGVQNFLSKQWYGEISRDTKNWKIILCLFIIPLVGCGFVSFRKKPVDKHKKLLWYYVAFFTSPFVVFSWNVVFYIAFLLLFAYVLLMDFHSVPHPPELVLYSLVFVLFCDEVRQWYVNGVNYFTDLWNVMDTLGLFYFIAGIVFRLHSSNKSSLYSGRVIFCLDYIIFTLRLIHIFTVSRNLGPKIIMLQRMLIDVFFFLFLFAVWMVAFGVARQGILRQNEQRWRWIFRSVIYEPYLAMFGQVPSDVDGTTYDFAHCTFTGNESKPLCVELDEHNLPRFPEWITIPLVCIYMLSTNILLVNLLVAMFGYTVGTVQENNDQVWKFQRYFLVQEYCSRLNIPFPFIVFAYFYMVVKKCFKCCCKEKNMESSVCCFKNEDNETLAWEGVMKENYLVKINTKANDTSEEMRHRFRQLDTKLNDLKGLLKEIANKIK
Description: A mammalian cell line derivative which stably expresses hTRPM8 was used in biological assays in association with testing the present compounds with cool-tasting or -feeling properties (Servant et al. US 2007/0259354 A1 and references cited therein). Typical compound concentrations tested were 100 μM, 30 μM, 10 μM, 3.3 μM, 1.1 μM, 0.37 μM, 0.12 μM, 0.04 μM, 0.01 μM and more dilutions for very potent compounds. The present compounds have shown strong activity as agonists of hTRPM8. […] For the sake of comparison, the EC50 of Comparative Compound 1, which was previously disclosed in U.S. 2013/0324557 A1 and has the structure

[3] = Solubility studies; format: physicochemical
Description: For the sake of comparison, the solubility of Comparative Compound 1, which was previously disclosed in U.S. 2013/0324557 A1, was also measured.

[4] = cell line stably expressing hTRPM8, read-out: EC50
[5] = pH 7.1, aqueous buffer, read-out: Solubility (pH 7.1)
[6] = aqueous buffer, pH 4.0, read-out: Solubility (pH 4.0)

Row | SMILES | Sensory Results: cooling compared with 45 μM WS-3 [1] | lingering effect [1] | EC50 [2, 4] | Solubility (pH 7.1) [3] | solubility [3, 5] | EC50 [2] | solubility [3, 6] | Solubility (pH 4.0) ([3]; pH 4.0)
1 | CCc1ccc(OCC(=O)N(Cc2cccs2)c2cc[nH]n2)cc1 [Compound 104, 2-(4-ethylphenoxy)-N-(1H-pyrazol-3-yl)-N-(thiophen-2-ylmethyl)acetamide] | significantly more cooling | unexpected lingering effect | < 1 nM |  |  |  |  | 
2 | COc1ccc(OCC(=O)N(Cc2cccs2)c2cc[nH]n2)cc1 [Compound 103, 2-(4-methoxyphenoxy)-N-(1H-pyrazol-3-yl)-N-(thiophen-2-ylmethyl)acetamide] | equivalent to the cooling 45 | unexpected lingering effect | 4.9 nM | unexpectedly superior solubility | 403 µM (≈ 138 µg/mL) |  |  | 
3 | O=C(COc1ccc(F)cc1)N(Cc1cccs1)c1cc[nH]n1 [Compound 102, 2-(4-flourophenoxy)-N-(1H-pyrazol-5-yl)-N-(thiophen-2-ylmethyl)acetamide] |  |  | 10.7 nM | unexpectedly superior solubility | 503 µM (≈ 167 µg/mL) |  |  | 
4 | Cc1ccc(OCC(=O)N(Cc2cccs2)c2cc[nH]n2)cc1C [Compound 105, 2-(3,4-dimethylphenoxy)-N-(1H-pyrazol-3-yl)-N-(thiophen-2-ylmethyl)acetamide] |  | unexpected lingering effect |  |  |  | 0.7 nM |  | 
5 | Cc1ccc(OCC(=O)N(Cc2cccs2)c2ccn[nH]2)cc1 [Comparative Compound 1, reference compound] |  |  | 0.3 nM |  | 171 µM (≈ 56 µg/mL) |  | 106 µM (≈ 34.7 µg/mL) | 
6 | Cc1cccc(OCC(=O)N(Cc2cccs2)c2cc[nH]n2)c1 [Compound 101, N-(1H-pyrazol-3-yl)-N-(thiophen-2-ylmethyl)-2-(m-tolyloxy)acetamide] |  |  | 6.1 nM |  | 152 µM (≈ 49.8 µg/mL) |  | 517 µM (≈ 169 µg/mL) | unexpectedly superior solubility
